Results from patent publication US8546442B2, “Pyrazolopiperidine compounds as CCR1 receptor antagonists” (Boehringer Ingelheim International GmbH, priority 2010, dated 2013).

Tests used:
CCR1 [1] = biological target: T1, CCR1 (Homo sapiens, UniProt P32246); assay: calcium flux in CCR1 transfected cells, Method A (Fluo-4 NW, FLIPR TETRA); type: cell-based; details: cells stably expressing recombinant CCR1 and G-alpha-16, MIP-1 alpha at EC80
T1 sequence (P32246 1-355): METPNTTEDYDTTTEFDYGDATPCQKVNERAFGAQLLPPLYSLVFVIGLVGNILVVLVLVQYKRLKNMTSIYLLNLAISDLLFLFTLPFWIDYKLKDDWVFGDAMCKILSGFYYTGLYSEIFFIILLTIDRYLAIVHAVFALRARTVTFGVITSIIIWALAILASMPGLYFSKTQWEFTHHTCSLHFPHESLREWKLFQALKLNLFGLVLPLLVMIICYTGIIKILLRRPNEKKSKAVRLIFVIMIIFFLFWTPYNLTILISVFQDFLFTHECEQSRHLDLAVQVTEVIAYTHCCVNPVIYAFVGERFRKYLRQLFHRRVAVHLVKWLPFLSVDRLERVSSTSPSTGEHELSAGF
Experimental: (§1) Compounds are assessed for the ability to block the interaction of CCR1 and MIP-1α in a functional cellular assay measuring calcium flux in CCR1 transfected cells.
Method A: Non-adherent cells purchased from Chemicon Corporation (HTS005C), stably expressing recombinant CCR1 and G-alpha-16 are grown in RPMI 1640 medium (Mediatech 10-080-CM) supplemented with 10% heat-inactivated FBS, 0.4 mg/mL Geneticin and penicillin/streptomycin. On the day of the assay, the cells are transferred to a beaker and dye-loaded in bulk using a Fluo-4 NW Calcium Assay Kit with probenecid (Invitrogen F36205) at 0.8E6 cells/mL for 1 hour at room temperature. After 1 hour, they are seeded in a 384-well tissue culture-treated plate at a density of 20,000 cells/well. Appropriately diluted test compound is added to the well to achieve a top concentration of 3,000 nM (diluted 4-fold with 10 doses total). The final concentration of DMSO is 1%. The buffer is HBSS (Invitrogen 14025) with 20 mM HEPES at pH 7.4. The cells are allowed to incubate 1 hour in the dark at room temperature. The plates are transferred to the FLIPR TETRA where MIP-1 alpha in 1% BSA is added at the EC80 final concentration. Wells+/−MIP-1 alpha containing diluted DMSO instead of compound serve as the controls. Intracellular calcium flux is recorded on the FLIPR TETRA, using excitation at 470/495 nm and emission at 515/575 nm. Data are analyzed using Activity Base software.

CCR1 [2] = biological target: T1, CCR1; assay: calcium flux in CCR1 transfected cells, Method B (Calcium 4 dye, HAMAMATSU FDSS6000); type: cell-based; details: cells stably expressing recombinant CCR1 and G-alpha-16, MIP-1alpha at EC80
Experimental: as §1
Method B: Non-adherent cells purchased from Chemicon Corporation (HTS005C), stably expressing recombinant CCR1 and G-alpha-16 are grown in RPMI 1640 medium (Mediatech 10-080-CM) supplemented with 10% FBS, 0.4 mg/mL Geneticin and penicillin/streptomycin. On the day of the assay, the cells are loaded with Calcium 4 dye (Molecular Devices R7448) with Probenecid (Invitrogen P346400) at 8E5 cells/mL for 1 hour at room temperature. After 1 hour, they are seeded in a 384-well tissue culture-treated plate at a density of 20,000 cells/well. Appropriately diluted test compound is added to the well to achieve a top concentration of 3,000 nM (diluted 4-fold with 10 doses total). The final concentration of DMSO is 1%. The buffer is HBSS (Invitrogen 14025) with 20 mM HEPES at pH 7.4. The cells incubate 30 minutes at 37 C and then 30 minutes at room temperature. The plates are transferred to the HAMAMATSU FDSS6000 where MIP-1alpha in 1% BSA is added at the EC80 final concentration. All plates must be read within 4 hours of the start of dye-loading. Wells+/−MIP-1alpha containing diluted DMSO instead of compound serve as the controls. Data are analyzed using Activity Base software.

CC[C@H](NC(=O)N1CCCc2c1cnn2-c1ccc(F)cc1)c1ccnc(S(C)(=O)=O)c1 [Example 59] gave an IC50 (CCR1 [1]) of 0.4 nM and an IC50 (CCR1 [2]) of 0.6 nM.
CC[C@H](NC(=O)N1CCCc2c1cnn2-c1ccc(F)cc1)c1cncc(S(C)(=O)=O)c1 [Example 45] showed an IC50 (CCR1 [1]) of 1 nM and an IC50 (CCR1 [2]) of 0.6 nM.
O=C(NCc1cc(Cl)cc(Cl)c1)N1CCCc2c1cnn2-c1ccc(F)cc1 [Example 40] gave an IC50 (CCR1 [1]) of 33 nM and an IC50 (CCR1 [2]) of 3 nM.
Compound COCCNS(=O)(=O)c1ccc(CNC(=O)N2CCCc3c2cnn3-c2ccc(F)cc2)cc1 [Example 26] has an IC50 (CCR1 [1]) of 6 nM and an IC50 (CCR1 [2]) of 4 nM.
Work on CCC[C@H](NC(=O)N1CCCc2c1cnn2-c1ccc(F)cc1F)c1ccnc(S(C)(=O)=O)c1 [Example 62] yielded an IC50 (CCR1 [1]) of 1 nM and an IC50 (CCR1 [2]) of 1 nM.
Work on C[C@H](CO)NS(=O)(=O)c1ccc(CNC(=O)N2CCCc3c2cnn3-c2ccc(F)cc2)cc1 [Example 34] yielded an IC50 (CCR1 [1]) of 20 nM.
In the case of CCC[C@H](NC(=O)N1CCCc2c1cnn2-c1c(F)cc(F)cc1F)c1ccnc(S(C)(=O)=O)c1 [Example 63], the IC50 (CCR1 [1]) is reported as 14 nM and the IC50 (CCR1 [2]) is reported as 14 nM.
Compound CCC[C@H](NC(=O)N1CCCc2c1cnn2-c1ccc(F)cc1)c1cncc(Br)c1 [Example 46] has an IC50 (CCR1 [1]) of 0.2 nM and an IC50 (CCR1 [2]) of 0.2 nM.
CCC[C@H](NC(=O)N1c2cnn(-c3ccc(F)cc3)c2CCC1C(F)(F)F)c1ccnc(S(C)(=O)=O)c1 (single isomer, unassigned) [Example 56] gave an IC50 (CCR1 [1]) of 10 nM and an IC50 (CCR1 [2]) of 6 nM.
CCCC(NC(=O)N1CCCc2c1cnn2-c1ccc(F)cc1)c1cncc(S(C)(=O)=O)c1 (centres unmarked) [Example 24] was tested, and the IC50 (CCR1 [1]) was 0.6 nM.
With CC[C@H](NC(=O)N1c2cnn(-c3ccc(F)cc3)c2CCC1C)c1ccnc(S(C)(=O)=O)c1 (some centres unmarked) [Example 55] the IC50 (CCR1 [1]) was 13 nM and the IC50 (CCR1 [2]) was 12 nM.
With CC[C@H](NC(=O)N1CCCc2c1cnn2-c1ccc(F)cc1)c1ccc(Br)nc1 [Example 48, 1-(4-Fluorophenyl)-1,5,6,7-tetrahydro-pyrazolo[4,3-b]pyridine-4-carboxylic acid [(S)-1-(6-bromo-pyridin-3-yl)-propyl]-amide] the IC50 (CCR1 [1]) was 19 nM and the IC50 (CCR1 [2]) was 2 nM.
For CC[C@H](NC(=O)N1CCCc2c1cnn2-c1ccc(F)cc1)c1ccc(S(C)(=O)=O)nc1 [Example 51], the IC50 (CCR1 [1]) was 14 nM and the IC50 (CCR1 [2]) was 3 nM.
For CNS(=O)(=O)c1ccc(CNC(=O)N2CCCc3c2cnn3-c2ccc(F)cc2)cc1 [Example 22], the IC50 (CCR1 [1]) was 22 nM and the IC50 (CCR1 [2]) was 5 nM.
With O=C(NCc1ccc(S(=O)(=O)NC2CCOCC2)cc1)N1CCCc2c1cnn2-c1ccc(F)cc1 [Example 28, 1-(4-Fluorophenyl)-1,5,6,7-tetrahydro-pyrazolo[4,3-b]pyridine-4-carboxylic acid 4-(tetrahydro-pyran-4-ylsulfamoyl)-benzylamide] the IC50 (CCR1 [1]) was 40 nM and the IC50 (CCR1 [2]) was 10 nM.
In the case of CCC[C@H](NC(=O)N1CCCc2c1cnn2-c1ccc(F)cc1)c1ccnc(S(C)(=O)=O)c1 [Example 60], the IC50 (CCR1 [1]) is reported as 0.5 nM and the IC50 (CCR1 [2]) is reported as 0.3 nM.
CCC[C@H](NC(=O)N1CCCc2c1cnn2-c1ccc(F)cc1)c1cncc(S(C)(=O)=O)c1 [Example 47] showed an IC50 (CCR1 [1]) of 0.4 nM and an IC50 (CCR1 [2]) of 0.2 nM.
C[C@@H](CO)NS(=O)(=O)c1ccc(CNC(=O)N2CCCc3c2cnn3-c2ccc(F)cc2)cc1 [Example 35] was tested, and the IC50 (CCR1 [1]) was 4 nM.
In the case of CCC[C@H](NC(=O)N1CCCc2c1cnn2-c1ccc(F)cc1)c1ccc(S(C)(=O)=O)nc1 [Example 50], the IC50 (CCR1 [1]) is reported as 4 nM and the IC50 (CCR1 [2]) is reported as 0.9 nM.
CS(=O)(=O)c1cccc(CNC(=O)N2CCCc3c2cnn3-c2ccc(F)cc2)c1 [Example 23] gave an IC50 (CCR1 [1]) of 31 nM and an IC50 (CCR1 [2]) of 22 nM.
CCC[C@H](NC(=O)N1c2cnn(-c3ccc(F)cc3)c2CCC1C(F)(F)F)c1ccc(S(C)(=O)=O)c(O)c1 (some centres unmarked) [Example 106] was tested, and the IC50 (CCR1 [2]) was 11 nM.
In the case of CN(C)S(=O)(=O)c1cccc(CNC(=O)N2CCCc3c2cnn3-c2ccc(F)cc2)c1 [Example 33], the IC50 (CCR1 [1]) is reported as 19 nM.
Compound CCC[C@H](NC(=O)N1CCCCc2c1cnn2-c1ccc(F)cc1)c1cncc(S(C)(=O)=O)c1 [Example 75] has an IC50 (CCR1 [2]) of 640 nM.
For CCC[C@H](NC(=O)N1c2cnn(-c3ccc(F)cc3)c2CCC1C)c1cccc(S(C)(=O)=O)n1 (some centres unmarked) [Example 107], the IC50 (CCR1 [2]) was 8 nM.
COc1ccc(CNC(=O)N2CCCc3c2cnn3-c2ccc(F)cc2)cc1 [Example 10] was tested, and the IC50 (CCR1 [2]) was 266 nM.
Cc1ccc(CNC(=O)N2CCCc3c2cnn3-c2ccc(F)cc2)cc1 [Example 5] showed an IC50 (CCR1 [2]) of 90 nM.
CC1CCc2c(cnn2-c2ccc(F)cc2)N1C(=O)NCc1ccnc(S(C)(=O)=O)c1 (centres unmarked) [Example 53] showed an IC50 (CCR1 [2]) of 1280 nM.
O=C(NCc1ccc(Cl)c(Cl)c1)N1CCCc2c1cnn2-c1ccc(F)cc1 [Example 17] showed an IC50 (CCR1 [2]) of 1 nM.
For O=C(NCc1ccc(F)cc1)N1CCCc2c1cnn2-c1ccc(F)cc1 [Example 7], the IC50 (CCR1 [2]) was 183 nM.
CCC[C@H](NC(=O)N1c2cnn(-c3ccc(F)cc3)c2CCC1C(F)(F)F)c1cccc(S(C)(=O)=O)n1 (some centres unmarked) [Example 94] showed an IC50 (CCR1 [2]) of 57 nM.
Compound CCC[C@H](NC(=O)N1CC(C(=O)OCC)Cc2c1cnn2-c1ccc(F)cc1)c1ccnc(S(C)(=O)=O)c1 (stereo partly drawn) [Example 114, 1-(4-Fluorophenyl)-4-[(S)-1-(2-methanesulfonyl-pyridin-4-yl)-butylcarbamoyl]-4,5,6,7-tetrahydro-1H-pyrazolo[4,3-b]pyridine-6-carboxylic acid ethyl ester] has an IC50 (CCR1 [2]) of 0.7 nM.
In the case of O=C(NCc1ccc(Cl)cc1)N1CCCc2c1cnn2-c1ccc(F)cc1 [Example 13], the IC50 (CCR1 [2]) is reported as 45 nM.
Work on C[C@H](NC(=O)N1CCCc2c1cnn2-c1ccc(F)cc1)c1ccc(S(C)(=O)=O)nc1 [Example 52] yielded an IC50 (CCR1 [2]) of 128 nM.
In the case of O=C(NCc1ccc(Br)cc1)N1CCCc2c1cnn2-c1ccc(F)cc1 [Example 37], the IC50 (CCR1 [2]) is reported as 40 nM.
With CCC[C@H](NC(=O)N1CCCc2c1cnn2-c1ccc(Cl)cc1)c1ccnc(S(C)(=O)=O)c1 [Example 71] the IC50 (CCR1 [2]) was 0.3 nM.
Work on COc1ccc([C@H](C)NC(=O)N2CCCc3c2cnn3-c2ccc(F)cc2)cc1 [Example 14] yielded an IC50 (CCR1 [2]) of 102 nM.
For CCC[C@H](NC(=O)N1c2cnn(-c3ccc(F)cc3)c2CC1C)c1ccnc(S(C)(=O)=O)c1 (stereo partly drawn) [Example 108, 1-(4-Fluorophenyl)-5-methyl-5,6-dihydro-1H-pyrrolo[3,2-c]pyrazole-4-carboxylic acid [(S)-1-(2-methanesulfonyl-pyridin-4-yl)-butyl]-amide], the IC50 (CCR1 [2]) was 9 nM.
CCC[C@H](NC(=O)N1c2cnn(-c3ccc(F)cc3)c2CCC1C(F)(F)F)c1cc(S(C)(=O)=O)ccc1F (single isomer, unassigned) [Example 77] was tested, and the IC50 (CCR1 [2]) was 37 nM.
C[C@H](NC(=O)N1CC(C(F)(F)F)Cc2c1cnn2-c1ccc(F)cc1)c1ccnc(S(C)(=O)=O)c1 (some centres unmarked) [Example 83] showed an IC50 (CCR1 [2]) of 1260 nM.
For C[C@H](NC(=O)N1CCCc2c1cnn2-c1ccc(F)cc1)c1cncc(S(C)(=O)=O)c1 [Example 44, 1-(4-Fluorophenyl)-1,5,6,7-tetrahydro-pyrazolo[4,3-b]pyridine-4-carboxylic acid [(S)-1-(5-methanesulfonyl-pyridin-3-yl)-ethyl]-amide], the IC50 (CCR1 [2]) was 18 nM.
CC[C@H](NC(=O)N1c2cnn(-c3ccc(F)cc3)c2CCC1C(F)(F)F)c1ccc(S(C)(=O)=O)c(O)c1 (some centres unmarked) [Example 85] was tested, and the IC50 (CCR1 [2]) was 23 nM.
CNS(=O)(=O)c1cccc(CNC(=O)N2CCCc3c2cnn3-c2ccc(F)cc2)c1 [Example 29] was tested, and the IC50 (CCR1 [2]) was 16 nM.
Compound Cc1ccccc1CNC(=O)N1CCCc2c1cnn2-c1ccc(F)cc1 [Example 4] has an IC50 (CCR1 [2]) of 283 nM.
O=C(NCc1cccc(C(F)(F)F)c1)N1CCCc2c1cnn2-c1ccc(F)cc1 [Example 21, 1-(4-Fluorophenyl)-N-[3-(trifluoromethyl)benzyl]-1,5,6,7-tetrahydro-4H-pyrazolo[4,3-b]pyridine-4-carboxamide] was tested, and the IC50 (CCR1 [2]) was 1 nM.
Work on CCC[C@H](NC(=O)N1CC(C)Cc2c1cnn2-c1ccc(F)cc1)c1ccnc(S(C)(=O)=O)c1 (some centres unmarked) [Example 102] yielded an IC50 (CCR1 [2]) of 0.6 nM.
